Reference: US20260035367A1 (Celgene Corporation, priority 2021, published 2026)
Where two headings read alike, the source gives them in different places.

Experiments:
[1] = target: T1, Recombinant human PKC-delta (His-tagged 345-676) (Homo sapiens, UniProt Q05655); experiment: PKC-delta inhibition assay (HTRF KinEASE kit); assay type: biochemical; conditions: ratio, PKC-theta vs PKC-delta HTRF; for PKC-theta/PKC-delta selectivity (binned): binned A to G
T1 construct: PKC-delta (His-tagged 345-676); His
T1 sequence (Q05655 345-676): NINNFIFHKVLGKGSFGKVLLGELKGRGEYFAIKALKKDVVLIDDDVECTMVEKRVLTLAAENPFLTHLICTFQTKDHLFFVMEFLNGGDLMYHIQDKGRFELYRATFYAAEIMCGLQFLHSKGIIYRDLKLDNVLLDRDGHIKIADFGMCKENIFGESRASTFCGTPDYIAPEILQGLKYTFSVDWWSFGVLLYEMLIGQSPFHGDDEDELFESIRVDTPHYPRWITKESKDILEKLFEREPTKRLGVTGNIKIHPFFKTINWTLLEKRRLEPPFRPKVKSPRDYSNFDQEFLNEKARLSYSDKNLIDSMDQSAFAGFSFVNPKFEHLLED

[2] = tested on: IL-2 secretion by human effector memory T cells (TEM); experiment: Effector memory T cells IL-2 release assay (CD3/CD28 stimulation, HTRF IL-2 detection); assay type: cell-based; conditions: 24 h; for IC50: Homo sapiens, T-cell
Summary of the method: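 Human effector memory T cells from healthy-donor buffy coats were exposed in triplicate to ten semi-log doses of compound in 0.1% DMSO. The cells were stimulated and incubated 24 h at 37 °C. Secreted IL-2 in the supernatant was measured by HTRF.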

[3] = target: T2, Recombinant human PKC-theta (His-tagged 362-706) (Homo sapiens, UniProt Q04759); experiment: PKC-theta inhibition assay (HTRF KinEASE kit); assay type: biochemical; conditions: ATP 6.5 μM, STK substrate 525 nM
T2 construct: Recombinant human PKC-theta (His-tagged 362-706); His
T2 sequence (Q04759 362-706): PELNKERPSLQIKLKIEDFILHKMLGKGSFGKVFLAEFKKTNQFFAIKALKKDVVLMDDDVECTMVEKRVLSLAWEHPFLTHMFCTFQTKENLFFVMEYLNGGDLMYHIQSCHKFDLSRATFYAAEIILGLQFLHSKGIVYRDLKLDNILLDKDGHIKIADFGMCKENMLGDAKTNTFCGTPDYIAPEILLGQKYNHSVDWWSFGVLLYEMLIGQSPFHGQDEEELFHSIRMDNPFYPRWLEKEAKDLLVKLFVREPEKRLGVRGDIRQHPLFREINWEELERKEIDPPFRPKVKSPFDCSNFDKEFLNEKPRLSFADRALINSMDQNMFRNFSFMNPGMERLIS
Summary of the method: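 IC50 values were from 4-parameter logistic fits of percent inhibition, based on acceptor/donor HTRF ratios over 10 semi-log compound doses. Kinase reactions, started with substrate plus ATP, ran 30 min at 25 °C in buffer supplemented with 10 mM MgCl2, 1 mM DTT and 0.1% Tween 20; detection lasted 2 h.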

[4] = binned A to G, read-out: PKC-theta IL2 pIC50 (binned) (converted)
[5] = read-out: PKC-theta IL2 pIC50 (converted)
[6] = binned A to H, read-out: PKC-theta HTRF pIC50 (binned) (converted)
[7] = read-out: PKC-theta HTRF pIC50 (converted)

| SMILES | PKC-theta/PKC-delta selectivity [1] | PKC-theta/PKC-delta selectivity (binned) [1] | IC50 [2, 4] [nM] | IC50 [2, 5] [nM] | IC50 [3, 6] [nM] | IC50 [3, 7] [nM] | PKC-theta IL2 pIC50 [2] | PKC-theta IL2 pIC50 (binned) ([2]; binned A to G) |
| --- | --- | --- | --- | --- | --- | --- | --- | --- |
| C[C@@H]1CNCCN1c1cc(C(F)(F)F)cc(-c2c(F)cnc3c2C(C)(C)C(=O)N3)n1 [Example 156] | 12 | D (a ratio of between 10 and 20) | 100 to 316 | 126 | 10 to 31.6 | 12.6 |  |  |
| CCC1(C)C(=O)Nc2ncc(F)c(-c3cc(C(F)(F)F)cc(N4CCNC[C@H]4C)n3)c21 (stereo partly drawn) [Example 157] | 20 | C (a ratio of between 20 and 30) | 100 to 316 | 158 | 3.16 to 10 | 7.94 |  |  |
| CC1(C)C(=O)Nc2nccc(-c3cc(Cl)cc(N4CCNCC4C(F)F)n3)c21 (stereo not drawn) [Example 159] | 9 | E (a ratio of between 5 and 10) | 100 to 316 | 100 | 1 to 3.16 | 2 |  |  |
| CC1(C)C(=O)Nc2nccc(-c3cc(C(F)(F)F)cc(N4CCNCC4C(F)F)n3)c21 (stereo not drawn) [Example 160] | 9 | E (a ratio of between 5 and 10) | 31.6 to 100 | 100 | 1 to 3.16 | 3.16 |  |  |
| CC1(C)C(=O)Nc2nccc(-c3cc(C(F)(F)F)cc(N4CCNC[C@H]4CO)n3)c21 [Example 161] | 12 | D (a ratio of between 10 and 20) | 31.6 to 100 | 50.1 | 1 to 3.16 | 2.51 |  |  |
| C[C@H]1NCCN(c2cc(C(F)(F)F)cc(-c3ccnc4c3C(C)(C)C(=O)N4)n2)[C@H]1C [Example 168] | 14 | D (a ratio of between 10 and 20) |  |  | 0.316 to 1 | 0.501 | 8.1 | B (a measured pIC50 of between 8.0 and 8.5) |
| C[C@@H]1NCCN(c2cc(C(F)(F)F)cc(-c3ccnc4c3C(C)(C)C(=O)N4)n2)[C@@H]1C [Example 169] | 16 | D (a ratio of between 10 and 20) | 31.6 to 100 | 100 | 3.16 to 10 | 7.94 |  |  |
| CC(F)(F)c1cc(-c2c(F)cnc3c2C(C)(C)C(=O)N3)nc(N2CCNCC2)c1 [Example 174] | 10 | D (a ratio of between 10 and 20) | 100 to 316 | 316 | 31.6 to 100 | 31.6 |  |  |
| CC1(C)C(=O)Nc2nccc(-c3cc(C(F)(F)F)cc(N4CCCNCC4)n3)c21 [Example 175] | 21 | C (a ratio of between 20 and 30) | 31.6 to 100 | 63.1 | 3.16 to 10 | 5.01 |  |  |
| C[C@@H]1CN[C@@H](C)CN1c1cc(C(F)(F)F)cc(-c2ccnc3c2C(C)(C)C(=O)N3)n1 [Example 177] | 24 | C (a ratio of between 20 and 30) | 31.6 to 100 | 63.1 | 3.16 to 10 | 6.31 |  |  |
| C[C@@H]1CN(c2cc(C(F)(F)F)cc(-c3ccnc4c3C(C)(C)C(=O)N4)n2)[C@H](C)CN1 [Example 178] | 20 | D (a ratio of between 10 and 20) | 31.6 to 100 | 63.1 | 1 to 3.16 | 3.16 |  |  |
| C[C@@H]1CNC[C@H](C)N1c1cc(C(F)(F)F)cc(-c2ccnc3c2C(C)(C)C(=O)N3)n1 [Example 179] | 20 | D (a ratio of between 10 and 20) | 100 to 316 | 200 | 3.16 to 10 | 6.31 |  |  |
| C[C@@H]1CNC[C@@H](C)N1c1cc(C(F)(F)F)cc(-c2ccnc3c2C(C)(C)C(=O)N3)n1 [Example 180] | 28 | C (a ratio of between 20 and 30) | 316 to 1000 | 631 | 1 to 3.16 | 2 |  |  |
| C[C@H]1CNCCN(c2cc(C(F)(F)F)cc(-c3ccnc4c3C(C)(C)C(=O)N4)n2)C1 [Example 181] | 12 | D (a ratio of between 10 and 20) | 100 to 316 | 158 | 10 to 31.6 | 12.6 |  |  |
| C[C@@H]1CNCCN(c2cc(C(F)(F)F)cc(-c3ccnc4c3C(C)(C)C(=O)N4)n2)C1 [Example 182] | 25 | C (a ratio of between 20 and 30) | 100 to 316 | 158 | 3.16 to 10 | 7.94 |  |  |
| C[C@H]1CCN(c2cc(C(F)(F)F)cc(-c3ccnc4c3C(C)(C)C(=O)N4)n2)CCN1 [Example 183] | 25 | C (a ratio of between 20 and 30) | 100 to 316 | 126 | 3.16 to 10 | 6.31 |  |  |
| C[C@@H]1CCN(c2cc(C(F)(F)F)cc(-c3ccnc4c3C(C)(C)C(=O)N4)n2)CCN1 [Example 184] | 20 | C (a ratio of between 20 and 30) | 100 to 316 | 251 | 10 to 31.6 | 10 |  |  |
| C[C@H]1CN(c2cc(C(F)(F)F)cc(-c3ccnc4c3C(C)(C)C(=O)N4)n2)CCCN1 [Example 185] | 27 | C (a ratio of between 20 and 30) | 31.6 to 100 | 39.8 | 3.16 to 10 | 5.01 |  |  |
| C[C@@H]1CN(c2cc(C(F)(F)F)cc(-c3ccnc4c3C(C)(C)C(=O)N4)n2)CCCN1 [Example 186] | 22 | C (a ratio of between 20 and 30) | 31.6 to 100 | 50.1 | 3.16 to 10 | 6.31 |  |  |
| C[C@H]1CCNCCN1c1cc(C(F)(F)F)cc(-c2ccnc3c2C(C)(C)C(=O)N3)n1 [Example 187] | 28 | C (a ratio of between 20 and 30) | 31.6 to 100 | 100 | 3.16 to 10 | 5.01 |  |  |
| C[C@@H]1CCNCCN1c1cc(C(F)(F)F)cc(-c2ccnc3c2C(C)(C)C(=O)N3)n1 [Example 188] | 28 | C (a ratio of between 20 and 30) | 31.6 to 100 | 100 | 3.16 to 10 | 6.31 |  |  |
| C[C@H]1CNCCCN1c1cc(C(F)(F)F)cc(-c2ccnc3c2C(C)(C)C(=O)N3)n1 [Example 189] | 16 | D (a ratio of between 10 and 20) | 100 to 316 | 251 | 3.16 to 10 | 5.01 |  |  |
| C[C@@H]1CNCCCN1c1cc(C(F)(F)F)cc(-c2ccnc3c2C(C)(C)C(=O)N3)n1 [Example 190] | 32 | B (a ratio of between 30 and 50) | 31.6 to 100 | 79.4 | 3.16 to 10 | 3.16 |  |  |
| CC1(C)C(=O)Nc2nccc(-c3cc(C(F)(F)F)cc(N4CCN[C@H]5COC[C@H]54)n3)c21 [Example 192] | 31 | B (a ratio of between 30 and 50) | 100 to 316 | 158 | 3.16 to 10 | 3.98 |  |  |
| CC(F)(F)c1cc(-c2ccnc3c2C(C)(C)C(=O)N3)nc(N2CCCNCC2)c1 [Example 203] | 14 | D (a ratio of between 10 and 20) | 31.6 to 100 | 100 | 3.16 to 10 | 6.31 |  |  |
| C[C@@H]1CN(c2cc(C(C)(F)F)cc(-c3ccnc4c3C(C)(C)C(=O)N4)n2)CCCN1 [Example 204] | 24 | C (a ratio of between 20 and 30) | 100 to 316 | 126 | 3.16 to 10 | 6.31 |  |  |
| CC1(C)C(=O)Nc2nccc(-c3nc(N4CCNCC4)c(F)cc3Cl)c21 [Example 207] | 5 | F (a ratio of between 1 and 5) | > 1000 | 2000 | 100 to 316 | 251 |  |  |
| C[C@H]1CN(c2cc(Cl)cc(-c3ccnc4c3C(C)(O)C(=O)N4)n2)CCN1 (stereo partly drawn) [Example 208] | 12 | D (a ratio of between 10 and 20) | 10 to 31.6 | 20 | 1 to 3.16 | 2 |  |  |
